Results as given in ChEMBL document CHEMBL1201862, “PubChem BioAssay data set” (2004).
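Interpolation was linear, between the two tested concentrations surrounding the appropriate level; five concentrations were tested over 48 hours in 96-well plates. Abbreviation: GI50, concentration required for 50% inhibition of growth.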 Activity calls are given as the source filed them. No stated cut-off is given here; in the data, active = GI50 up to about 1.1 µM and inactive = higher.

Assays:
Assay in all cases: growth of human tumour cells (NCI), 48 h
COLO 205 = system: COLO 205
MOLT-4 = system: MOLT-4
OVCAR-8 = system: OVCAR-8
OVCAR-5 = system: OVCAR-5
BT-549 = system: BT-549
LOX IMVI = system: LOX IMVI
DU-145 = system: DU-145
Hs-578T = system: Hs-578T
MDA-MB-231 = system: MDA-MB-231
SNB-75 = system: SNB-75
NCI/ADR-RES = system: NCI/ADR-RES
ACHN = system: ACHN
EKVX = system: EKVX
UO-31 = system: UO-31
HOP-92 = system: HOP-92
SK-MEL-28 = system: SK-MEL-28
KM-20L2 = system: KM-20L2
SNB-78 = system: SNB-78
M19-MEL = system: M19-MEL
786-0 = system: 786-0

| SMILES | GI50 (COLO 205) | GI50 (MOLT-4) | GI50 (OVCAR-8) | GI50 (OVCAR-5) | GI50 (BT-549) | GI50 (LOX IMVI) | GI50 (DU-145) | GI50 (Hs-578T) | GI50 (MDA-MB-231) | GI50 (SNB-75) | GI50 (NCI/ADR-RES) | GI50 (ACHN) | GI50 (EKVX) | GI50 (UO-31) | GI50 (HOP-92) | GI50 (SK-MEL-28) | GI50 (KM-20L2) | GI50 (SNB-78) | GI50 (M19-MEL) | GI50 (786-0) |
| --- | --- | --- | --- | --- | --- | --- | --- | --- | --- | --- | --- | --- | --- | --- | --- | --- | --- | --- | --- | --- |
| CC1=C(SCCO)C(=O)c2ccccc2C1=O | 11.1 µM (inactive) | 0.324 µM (active) | 12.4 µM (inactive) | 17.9 µM (inactive) | 17.8 µM (inactive) | 12.1 µM (inactive) | 16 µM (inactive) | 12.2 µM (inactive) | 13.7 µM (inactive) | 16.5 µM (inactive) | 14.3 µM (inactive) | 3.52 µM (inactive) | 8.41 µM (inactive) | 8.63 µM (inactive) | 1.7 µM (inactive) | 11 µM (inactive) | – | – | – | – |
| O=C(NN1C(=O)CSC1c1ccc(C(F)(F)F)cc1)c1ccncc1 (stereo not given) | – | > 100 µM (inactive) | > 100 µM (inactive) | > 100 µM (inactive) | – | > 100 µM (inactive) | – | – | – | > 100 µM (inactive) | > 100 µM (inactive) | – | > 100 µM (inactive) | > 100 µM (inactive) | > 100 µM (inactive) | > 100 µM (inactive) | > 100 µM (inactive) | > 31.6 µM (inactive) | > 100 µM (inactive) | – |
| CN1C(=O)C(C#N)C2C[C@@]1(C)Oc1ccccc12 (stereo not given in full) | > 100 µM (inactive) | 7.29 µM (inactive) | > 100 µM (inactive) | > 100 µM (inactive) | 64.9 µM (inactive) | > 100 µM (inactive) | > 100 µM (inactive) | > 100 µM (inactive) | > 100 µM (inactive) | > 100 µM (inactive) | > 100 µM (inactive) | > 100 µM (inactive) | > 100 µM (inactive) | > 100 µM (inactive) | > 100 µM (inactive) | > 100 µM (inactive) | – | – | – | > 100 µM (inactive) |
| CCOc1ncn(-c2ccc(NC(=S)Nc3cccc(O)c3)cc2)n1 | > 100 µM (inactive) | > 100 µM (inactive) | > 100 µM (inactive) | > 100 µM (inactive) | > 100 µM (inactive) | > 100 µM (inactive) | > 100 µM (inactive) | – | > 100 µM (inactive) | 40.4 µM (inactive) | – | – | > 100 µM (inactive) | > 100 µM (inactive) | > 100 µM (inactive) | > 100 µM (inactive) | – | – | – | – |
| N#C/C(=C\c1ccc(Cl)cc1)c1nc2ccccc2c(=O)[nH]1 | > 100 µM (inactive) | > 100 µM (inactive) | > 100 µM (inactive) | > 100 µM (inactive) | 23.4 µM (inactive) | > 100 µM (inactive) | > 100 µM (inactive) | 17.9 µM (inactive) | 33.8 µM (inactive) | 17.1 µM (inactive) | > 100 µM (inactive) | 65.8 µM (inactive) | > 100 µM (inactive) | > 100 µM (inactive) | 11 µM (inactive) | > 100 µM (inactive) | – | – | – | 44.4 µM (inactive) |
| CC12CCC(=O)N1c1cnccc1N2 (stereo not given) | > 100 µM (inactive) | > 100 µM (inactive) | > 100 µM (inactive) | > 100 µM (inactive) | – | – | – | – | – | > 100 µM (inactive) | – | > 100 µM (inactive) | > 100 µM (inactive) | > 100 µM (inactive) | > 100 µM (inactive) | > 100 µM (inactive) | > 100 µM (inactive) | > 100 µM (inactive) | – | – |
| CC(=O)O[C@H]1CC[C@H]2[C@@H]3CCC(C(C)=O)[C@H](C(=O)O)[C@H]3CC[C@]12C (stereo not given in full) | > 100 µM (inactive) | > 100 µM (inactive) | > 100 µM (inactive) | > 100 µM (inactive) | > 100 µM (inactive) | – | – | > 100 µM (inactive) | > 100 µM (inactive) | – | > 100 µM (inactive) | – | > 100 µM (inactive) | > 100 µM (inactive) | > 100 µM (inactive) | > 100 µM (inactive) | – | – | – | – |
| CC(=O)/N=C1\N/C(=C/c2cc([N+](=O)[O-])ccc2O)CN1C | > 100 µM (inactive) | 6.31 µM (inactive) | > 100 µM (inactive) | > 100 µM (inactive) | > 100 µM (inactive) | > 100 µM (inactive) | > 100 µM (inactive) | – | > 100 µM (inactive) | > 100 µM (inactive) | > 100 µM (inactive) | > 100 µM (inactive) | > 100 µM (inactive) | > 100 µM (inactive) | > 100 µM (inactive) | > 100 µM (inactive) | – | – | – | > 100 µM (inactive) |
| O=C1OC(CN2CCOCC2)CN1/N=C/c1ccc([N+](=O)[O-])o1 (stereo not given) [FURALTADONE] | 27.5 µM (inactive) | 51.6 µM (inactive) | 45.8 µM (inactive) | 61.5 µM (inactive) | 86.1 µM (inactive) | 21.7 µM (inactive) | 73.3 µM (inactive) | 54.6 µM (inactive) | 33.3 µM (inactive) | > 100 µM (inactive) | 35.4 µM (inactive) | 35.6 µM (inactive) | 63.7 µM (inactive) | 97.1 µM (inactive) | 64.4 µM (inactive) | > 100 µM (inactive) | – | – | – | 62.7 µM (inactive) |
| Clc1cc(N/N=C(\c2ccccc2)c2ccccn2)ncn1 | < 0.01 µM (active) | 0.0308 µM (active) | < 0.01 µM (active) | 0.361 µM (active) | 4.21 µM (inactive) | 0.281 µM (active) | 0.5 µM (active) | 3.38 µM (inactive) | 0.0252 µM (active) | 20.7 µM (inactive) | 0.0336 µM (active) | 0.0266 µM (active) | 0.0215 µM (active) | 0.324 µM (active) | 2.44 µM (inactive) | 1.44 µM (inactive) | – | – | – | – |
| N#Cc1c(Cl)cc(Cl)n2c1nc1ccccc12 | 3.52 µM (inactive) | 3.21 µM (inactive) | 15.3 µM (inactive) | 20 µM (inactive) | 6.38 µM (inactive) | 6.84 µM (inactive) | 14.3 µM (inactive) | 11 µM (inactive) | 6.49 µM (inactive) | 14 µM (inactive) | 12.6 µM (inactive) | 2.64 µM (inactive) | 23.1 µM (inactive) | 3.63 µM (inactive) | 4.85 µM (inactive) | 7.35 µM (inactive) | – | – | – | 2.86 µM (inactive) |
| CCCCCCCCCCCCCCCc1nnc(S)[nH]1 | – | 20.8 µM (inactive) | – | > 100 µM (inactive) | – | > 100 µM (inactive) | – | – | – | > 100 µM (inactive) | – | > 100 µM (inactive) | > 100 µM (inactive) | 24 µM (inactive) | – | > 100 µM (inactive) | – | > 100 µM (inactive) | > 100 µM (inactive) | – |
| COc1ccc2nc3c(C)cc4ccccc4n3c2c1 | > 10 µM (inactive) | 23 µM (inactive) | 72.1 µM (inactive) | > 100 µM (inactive) | > 100 µM (inactive) | – | > 100 µM (inactive) | 18 µM (inactive) | – | 28.2 µM (inactive) | > 100 µM (inactive) | 47.3 µM (inactive) | 19.2 µM (inactive) | 52 µM (inactive) | 50.8 µM (inactive) | > 100 µM (inactive) | – | – | – | 48 µM (inactive) |
| O=c1oc2ccccc2n1P(=O)(Oc1ccc(Cl)cc1)n1c(=O)oc2ccccc21 | > 100 µM (inactive) | 39.5 µM (inactive) | > 100 µM (inactive) | > 100 µM (inactive) | – | > 100 µM (inactive) | – | – | – | > 100 µM (inactive) | – | > 100 µM (inactive) | > 100 µM (inactive) | > 100 µM (inactive) | > 100 µM (inactive) | > 100 µM (inactive) | > 100 µM (inactive) | > 100 µM (inactive) | > 100 µM (inactive) | – |
| N/C(=N\O)N/N=C/c1ncccc1O | 11.9 µM (inactive) | 11.2 µM (inactive) | 5.04 µM (inactive) | 31.5 µM (inactive) | – | 11.2 µM (inactive) | – | – | – | 17.9 µM (inactive) | 8.73 µM (inactive) | – | 22.1 µM (inactive) | 13.3 µM (inactive) | 61.7 µM (inactive) | 45.9 µM (inactive) | 10.4 µM (inactive) | > 88.5 µM (inactive) | 19.2 µM (inactive) | – |
| COc1cc(OC)cc(Oc2nc3cc(F)c(F)cc3nc2-c2ccccc2)c1 | > 100 µM (inactive) | > 100 µM (inactive) | > 100 µM (inactive) | > 100 µM (inactive) | > 100 µM (inactive) | > 100 µM (inactive) | > 100 µM (inactive) | > 100 µM (inactive) | – | > 100 µM (inactive) | > 100 µM (inactive) | > 100 µM (inactive) | > 100 µM (inactive) | > 100 µM (inactive) | > 100 µM (inactive) | > 100 µM (inactive) | – | – | – | > 100 µM (inactive) |
| CCCCC(CC)C(=O)Oc1ccc(C(=O)c2ccccc2)c(O)c1 (stereo not given) | 61.2 µM (inactive) | 24.9 µM (inactive) | 44.9 µM (inactive) | 38.5 µM (inactive) | 39.1 µM (inactive) | 44.6 µM (inactive) | 57 µM (inactive) | 20.6 µM (inactive) | > 100 µM (inactive) | 23.3 µM (inactive) | 35.9 µM (inactive) | 48.1 µM (inactive) | 35.6 µM (inactive) | 20.9 µM (inactive) | 23.2 µM (inactive) | 36.8 µM (inactive) | – | – | – | – |
| Nc1c(S(=O)(=O)O)cc(S(=O)(=O)O)c2ccc(/N=N/c3ccc(/C=C/c4ccc(/N=N/c5ccc6c(S(=O)(=O)O)cc(S(=O)(=O)O)c(N)c6c5O)cc4S(=O)(=O)O)c(S(=O)(=O)O)c3)c(O)c12 | > 100 µM (inactive) | > 100 µM (inactive) | > 100 µM (inactive) | 59.4 µM (inactive) | – | > 100 µM (inactive) | – | – | – | 56.9 µM (inactive) | > 100 µM (inactive) | – | > 100 µM (inactive) | 37.1 µM (inactive) | 35.6 µM (inactive) | > 100 µM (inactive) | 79.4 µM (inactive) | > 83.4 µM (inactive) | > 100 µM (inactive) | – |
